pIC50: −log10 of the molar value.
Biological target: Tyrosine-protein kinase BTK (Homo sapiens, UniProt Q06187)
Experiment: Enzyme Assay: The following describes a microfluidic, off-chip mobility shift kinase assay used to measure inherent potency of compounds against BTK enzyme. Compounds described by embodiments of the present invention were assayed using this protocol and the data from the same is recorded in Table 2 within the column labeled: Time Dependent BTK Enzyme Assay IC50. […] Stopped reactions were monitored at −2 PSI, −3000 V/−700 V in a LabChip 3000 plate reader from Caliper Life Sciences, a PerkinElmer Company (Hopkinton, Mass.), and the activity was measured by off-chip mobility shift assay measuring the charge/mass difference between substrate and product resulting from peptide phosphorylation. IC50 and efficacy were determined by plotting log [Inhibitor] vs. % Activity in GeneData Screener (Basel, Switzerland). Compounds described by embodiments of the present invention were assayed using this protocol and the data from the same is recorded in Table 2 within the column labeled: Time Dependent […] BTK Enzyme Assay IC50.

Sequence of Tyrosine-protein kinase BTK (Q06187 whole entry): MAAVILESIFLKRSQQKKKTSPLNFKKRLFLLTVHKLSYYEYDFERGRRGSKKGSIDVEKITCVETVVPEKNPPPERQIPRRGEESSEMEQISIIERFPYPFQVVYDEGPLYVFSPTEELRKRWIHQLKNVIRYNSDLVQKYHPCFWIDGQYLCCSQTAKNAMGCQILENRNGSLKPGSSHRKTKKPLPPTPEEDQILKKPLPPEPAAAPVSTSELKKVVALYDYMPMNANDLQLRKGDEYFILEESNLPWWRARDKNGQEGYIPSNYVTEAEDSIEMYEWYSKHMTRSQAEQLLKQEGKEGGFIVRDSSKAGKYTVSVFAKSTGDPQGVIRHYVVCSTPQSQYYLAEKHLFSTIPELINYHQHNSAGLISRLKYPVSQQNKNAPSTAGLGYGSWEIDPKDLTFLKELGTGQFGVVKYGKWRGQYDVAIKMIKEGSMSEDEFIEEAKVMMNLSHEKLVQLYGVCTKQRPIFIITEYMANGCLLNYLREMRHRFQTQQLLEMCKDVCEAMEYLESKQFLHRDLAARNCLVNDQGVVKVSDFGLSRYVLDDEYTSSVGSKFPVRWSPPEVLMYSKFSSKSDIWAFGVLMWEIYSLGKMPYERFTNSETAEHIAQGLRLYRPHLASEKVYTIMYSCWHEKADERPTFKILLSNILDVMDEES

| pIC50 | Structure (SMILES) |
| --- | --- |
| < 6.00 | C=CC(=O)N1CC2(CC(Nc3ncnc(N)c3-c3cnn(Cc4ccncc4)c3)C2)C1 |
| > 6.00 | C=CC(=O)Nc1cncc(Oc2ncnc(N)c2-c2ccc(Oc3ccc(C#N)cc3)cc2)c1 |
| > 7.00 | C=CC(=O)Nc1cccc(Oc2ncnc(N)c2-c2ccc(Oc3ccccc3)cc2)c1F |
| < 6.00 | CCC(=O)Nc1cccc(Oc2ccncc2-c2ccc(Oc3ccccc3)cc2)c1 |
| < 6.00 | CCC(=O)Nc1cccc(Oc2ccnc(C(N)=O)c2-c2ccc(Oc3ccccc3)cc2)c1 |
| > 6.00 | C=CC(=O)Nc1cccc(Oc2ncnc(N)c2-c2cnn(Cc3cccc(S(C)(=O)=O)c3)c2)c1 |
| < 6.00 | N#CC1(C(=O)Nc2cccc(-c3c(N)ncnc3Oc3ccc(Oc4ccccc4)cc3)c2)CC1 |

| Structure (SMILES) | pIC50 |
| --- | --- |
| Nc1ncnc(NC2CC3(C2)CN(S(=O)(=O)CCCl)C3)c1-c1ccc(Oc2ccccc2)cc1 | > 7.00 |

Reference: ChEMBL document CHEMBL5725790, “Compositions and methods for the production of pyrimidine and pyridine compounds with BTK inhibitory activity” (2017)
